From EP0978561A1, “Antisense oligonucleotides for the inhibition of VEGF expression” (Hoechst Marion Roussel Deutschland GmbH, priority 1998, dated 2000) come the findings set out here.

The series has as its system human VEGF. Description: VEGF protein assay: ELISA of secreted VEGF in conditioned medium of oligonucleotide-treated cells. The series is classed as cell-based. The settings on record: cells treated 5 hours with oligonucleotide and Cellfectin, secreted VEGF in supernatant, 100% = Cellfectin without oligonucleotide, read-out: IC50 for VEGF secretion. Here is the method:
The cells are plated in 96-well plates at 30,000 cells/well, 150 ul medium per well (medium depends on cell type). The next day, Cellfectin (Gibco-BRL) is diluted to 400 ug/ml in water (solution A). Oligonucleotides are diluted to 40X the final desired concentration in water (solution B). Equal amounts of solutions A and B are mixed, to give the desired volume of a solution that is 200 µg/ml Cellfectin and 20X oligonucleotide, and the mixture left at room temperature for 30 minutes. After 30 minutes, 19 volumes of Optimem (Gibco-BRL) is added to give a final solution that is 10 µg/ml Cellfectin and 1X oligonucleotide (solution C). Medium is removed from the cells, the wells are washed 2X with Optimem, and 150 µl solution C added to each well. The plates are then returned to the incubator (37°C, 5% CO2). After 5 hours, the Cellfectin/oligonucleotide solution is removed and replaced with 150 µl of regular growth medium. VEGF protein and mRNA assays are performed beginning 19 hours later.
Samples (from example 4) of conditioned medium are taken from the desired wells and assayed for the presence of human VEGF using the human VEGF ELISA kit from R & D systems.The assay protocol is the one provided with the kit.
The IC50s are calculated based on a value of 100% for the amount of VEGF protein or mRNA in cells treated with Cellfectin but no oligonucleotide.

Read-outs that look alike come from different tables or passages of the source.

Regarding “5'-p*(2'5'-Co Co Co Co)(teg) G*C*G C*T G A*T*A G A*C*A T*C*C*A*T*G -3' (GCGCTGATAGACATCCATG; chemistry not fully specified) [ON 53, 2'5(Co)4-conjugate all-2'-O-methyl]”, the IC50 (commonly the concentration that gives 50% inhibition) came out at 1500 nM.
As to “5'-p*-(2'5'-rA*rA*rA*rA)*(teg) G*C*G C*T G A*T*A G A*C*A T*C*C*A*T*G -3' (GCGCTGATAGACATCCATG; 5'-phosphate 2'5' rA4, teg linker, all-2'-O-methyl, chemistry not fully specified) [ON 54, 2'5'(rA)4-conjugate all-2'-O-methyl]”, the IC50 was 230 nM. In addition, the IC50 (listed as ON54) is ~230 nM.
